The text below walks through data of patent US20220144854A1, “MACROCYCLIC COMPOUNDS” (ZENO MANAGEMENT, INC., priority 2019, published 2022).

The subject of this experiment is NCI-H929 (ATCC CRL-9068) cells. The experiment can be described thus: NCI-H929 cell proliferation assay (CellTiter-Glo). Format: cell-based. As to conditions: 72 h of compound treatment. How it is done: Cell proliferation was measured using the CellTiter-Glo® Luminescent Cell Viability Assay. The assay involved the addition of a single reagent (CellTiter-Glo® Reagent) directly to cells cultured in serum-supplemented medium.
Each compound evaluated was prepared as a DMSO stock solution (10 mM). Compounds were tested in duplicate on each plate, with a 10-point serial dilution curve (1:3 dilution). Compound treatment ([…]) was added from the compound dilution plate to the cell plate. The highest compound concentration was 10 μM (final), with a 0.1% final DMSO concentration. Plates were then incubated at 37° C., 5% CO2. After 72 h of compound treatment, cell plates were equilibrated at rt for approximately 30 mins. An equi-volume amount of CellTiter-Glo® Reagent (40 μL) was added to each well. Plates were mixed for 2 mins on an orbital shaker to induce cell lysis and then incubated at rt for 10 mins to stabilize the luminescent signal. Luminescence was recorded using an Envision plate reader according to CellTiter-Glo protocol. IC50 of each compound was calculated using GraphPad Prism by nonlinear regression analysis.
(In general: In ATP-based viability assays light output follows the ATP content of the culture.)

Where only a bound is given, the exact number is not on record here.

As usually defined, the IC50 is the point on the concentration scale where inhibition reaches its midpoint. A low value points to higher potency. As for `COc1ccc(Cn2nc3c(c2C)-c2c(Cl)ccc4c(c(C(=O)O)n(C)c24)CCCOc2cc(cc4ccccc24)SCc2cc(nn2C(C)C)CSC3)cc1` (single isomer, unassigned) [Example 8A, (Z)-1^6-Chloro-6^1-isopropyl-2^1-(4-methoxybenzyl)-1^1,2^5-dimethyl-1^1H,2^1H,6^1H-10-oxa-4,8-dithia-1(7,3)-indola-2(4,3),6(3,5)-dipyrazola-9(3,1)-naphthalenacyclotridecaphane-1^2-carboxylic acid], the IC50 is greater than 1000 nM.
Molecule `COc1ccc(Cn2nc3c(c2C)-c2c(Cl)ccc4c(c(C(=O)O)n(C)c24)CCCOc2cc(cc4ccccc24)SCc2cc(nn2C(C)C)CSC3)cc1` (single isomer, unassigned) [Example 8B, (Z)-1^6-Chloro-6^1-isopropyl-2^1-(4-methoxybenzyl)-1^1,2^5-dimethyl-1^1H,2^1H,6^1H-10-oxa-4,8-dithia-1(7,3)-indola-2(4,3),6(3,5)-dipyrazola-9(3,1)-naphthalenacyclotridecaphane-1^2-carboxylic acid] returned an IC50 of 100 to 1000 nM.
`Cc1nn(C)c2c1-c1c(F)ccc3c(c(C(=O)O)n(C)c13)CCCOc1cc(cc3ccccc13)SCc1cc(nn1C(C)C)CSC2` (single isomer, unassigned) [Example 16B, (Z)-1^6-Fluoro-6^1-isopropyl-1^1,2^1,2^3-trimethyl-1^1H,2^1H,6^1H-10-oxa-4,8-dithia-1(7,3)-indola-2(4,5),6(3,5)-dipyrazola-9(3,1)-naphthalenacyclotridecaphane-1^2-carboxylic acid] came in with an IC50 greater than 1000 nM.
The same measure, in the same setting: the figure for `Cc1nn(C)c2c1-c1c(F)ccc3c(c(C(=O)O)n(C)c13)CCCOc1cc(cc3ccccc13)SCc1cc(nn1CC(C)C)CSC2` (single isomer, unassigned) [Example 17B, (Z)-1^6-Fluoro-6^1-isobutyl-1^1,2^1,2^3-trimethyl-1^1H,2^1H,6^1H-10-oxa-4,8-dithia-1(7,3)-indola-2(4,5),6(3,5)-dipyrazola-9(3,1)-naphthalenacyclotridecaphane-1^2-carboxylic acid] is 100 to 1000 nM; for `Cc1nn(C)c2c1-c1c(Cl)ccc3c(c(C(=O)O)n(C)c13)CCCOc1cc(cc3ccccc13)SCc1cc(nn1C)CSC2` (single isomer, unassigned) [Example 19A, (Z)-1^6-Chloro-1^1,2^1,2^3,6^1-tetramethyl-1^1H,2^1H,6^1H-10-oxa-4,8-dithia-1(7,3)-indola-2(4,5),6(3,5)-dipyrazola-9(3,1)-naphthalenacyclotridecaphane-1^2-carboxylic acid] it is greater than 1000 nM; for `Cc1nn(C)c2c1-c1c(Cl)ccc3c(c(C(=O)O)n(C)c13)CCCOc1cc(cc3ccccc13)SCc1cc(nn1C)CSC2` (single isomer, unassigned) [Example 19B, (Z)-1^6-Chloro-1^1,2^1,2^3,6^1-tetramethyl-1^1H,2^1H,6^1H-10-oxa-4,8-dithia-1(7,3)-indola-2(4,5),6(3,5)-dipyrazola-9(3,1)-naphthalenacyclotridecaphane-1^2-carboxylic acid] it is less than 100 nM.
`Cn1nc2cc1CCc1cc(c3ccccc3c1)OCCCc1c(C(=O)O)n(C)c3c(c(Cl)ccc13)-c1c(nn3c1CCCC3)CNC2` (single isomer, unassigned) [Example 27A, (Z)-1^6-Chloro-1^1,6^1-dimethyl-2^4,2^5,2^6,2^7-tetrahydro-1^1H,6^1H-10-oxa-4-aza-2(3,2)-pyrazolo[1,5-a]pyridina-1(7,3)-indola-6(3,5)-pyrazola-9(3,1)-naphthalenacyclotridecaphane-1^2-carboxylic acid] had an IC50 of 100 to 1000 nM.
On the same count and under the same terms, then `Cn1nc2cc1CCc1cc(c3ccccc3c1)OCCCc1c(C(=O)O)n(C)c3c(c(Cl)ccc13)-c1c(nn3c1CCCC3)CNC2` (single isomer, unassigned) [Example 27B, (Z)-1^6-Chloro-1^1,6^1-dimethyl-2^4,2^5,2^6,2^7-tetrahydro-1^1H,6^1H-10-oxa-4-aza-2(3,2)-pyrazolo[1,5-a]pyridina-1(7,3)-indola-6(3,5)-pyrazola-9(3,1)-naphthalenacyclotridecaphane-1^2-carboxylic acid], with greater than 1000 nM.
For the setting “Homo sapiens, NCI-H929, 72 h”, `CO[C@H]1/C=C/C[C@H](C)[C@@H](C)S(=O)(=O)NC(=O)c2ccc3c(c2)N(C[C@@H]2CC[C@H]21)C[C@@]1(CCCc2cc(Cl)ccc21)CO3` [AMG176, reference compound] displayed an IC50 of 100 to 1000 nM.
Take `Cc1c2c(nn1C)CSCc1cc(n(C)n1)CSc1cc(c3ccccc3c1)OCCCc1c(C(=O)O)n(C)c3c-2c(Cl)ccc13` [AZD5991, reference compound]: the IC50 (Homo sapiens, NCI-H929, 72 h) is less than 100 nM.
On to `Cc1[nH]nc2c1-c1c(Cl)ccc3c(c(C(=O)O)n(C)c13)CCCOc1cc(cc3ccccc13)SCc1cc(nn1C(C)C)CSC2` [Example 9B, (Z)-1^6-Chloro-6^1-isopropyl-1^1,2^5-dimethyl-1^1H,2^1H,6^1H-10-oxa-4,8-dithia-1(7,3)-indola-2(4,3),6(3,5)-dipyrazola-9(3,1)-naphthalenacyclotridecaphane-1^2-carboxylic acid], for which, under “Homo sapiens, NCI-H929, 72 h”, the IC50 was greater than 1000 nM.
Regarding `Cc1c2c(nn1C)CSCc1cc([nH]n1)CSc1cc(c3ccccc3c1)OCCCc1c(C(=O)O)n(C)c3c-2c(Cl)ccc13` [Example 11A, (Z)-1^6-Chloro-1^1,2^1,2^5-trimethyl-1^1H,2^1H,6^1H-10-oxa-4,8-dithia-1(7,3)-indola-2(4,3),6(3,5)-dipyrazola-9(3,1)-naphthalenacyclotridecaphane-1^2-carboxylic acid], the IC50 is greater than 1000 nM.
Molecule `Cc1c2c(nn1C)CSCc1cc(n(C)n1)CSc1cc(c3cc(Cl)ccc3c1)OCCCc1c(C(=O)O)n(C)c3c-2c(Cl)ccc13` [Example 12A, (Z)-1^6,9^7-Dichloro-1^1,2^1,2^5,6^1-tetramethyl-1^1H,2^1H,6^1H-10-oxa-4,8-dithia-1(7,3)-indola-2(4,3),6(3,5)-dipyrazola-9(3,1)-naphthalenacyclotridecaphane-1^2-carboxylic acid] came in with an IC50 of 100 to 1000 nM.
For the molecule `Cc1c2c(nn1C)CSCc1cc(n(C)n1)CSc1cc(c3ccccc3c1)OCCCc1c(C(=O)O)n(C)c3c-2c(Cl)cc(Cl)c13` [Example 13A, (Z)-1^4,1^6-dichloro-1^1,2^1,2^5,6^1-tetramethyl-1^1H,2^1H,6^1H-10-oxa-4,8-dithia-1(7,3)-indola-2(4,3),6(3,5)-dipyrazola-9(3,1)-naphthalenacyclotridecaphane-1^2-carboxylic acid], the IC50 was greater than 1000 nM.
With `Cc1c2c(nn1C)CSCc1cc(n(C)n1)CSc1cc(c3ccccc3c1)OCCCc1c(C(=O)O)n(C)c3c-2c(F)ccc13` [Example 14B, (Z)-1^6-Fluoro-1^1,2^1,2^5,6^1-tetramethyl-1^1H,2^1H,6^1H-10-oxa-4,8-dithia-1(7,3)-indola-2(4,3),6(3,5)-dipyrazola-9(3,1)-naphthalenacyclotridecaphane-1^2-carboxylic acid], the IC50 is greater than 1000 nM.
For the molecule `Cc1nn(C23CC(C2)C3)c2c1-c1c(Cl)ccc3c(c(C(=O)O)n(C)c13)CCCOc1cc(cc3ccccc13)SCc1cc(n[nH]1)CSC2` [Example 21A, (Z)-2^1-(Bicyclo[1.1.1]pentan-1-yl)-1^6-chloro-1^1,2^3-dimethyl-1^1H,2^1H,6^1H-10-oxa-4,8-dithia-1(7,3)-indola-2(4,5),6(3,5)-dipyrazola-9(3,1)-naphthalenacyclotridecaphane-1^2-carboxylic acid], the IC50 (Homo sapiens, NCI-H929, 72 h) was greater than 1000 nM.
